Values joined by “and” are separate entries in the source; they are usually repeats but may differ in a detail not shown here. Identical values can stand only once. Blank lines part the entries; values can stand above or below the molecule they belong to.
Columns and labels:
[1] = system: head and neck squamous cancer cell lines; conditions: cited from earlier work
[2] = Plasma pharmacokinetics after oral SNX-5422; type: in vivo, human
[3] = system: patients with NSCLC; assay: Anti-tumor activity; type: in vivo, human
[4] = system: patients with advanced lung cancers; conditions: human, in vivo
[5] = system: patients with advanced lung cancers; assay: Dose determination; type: in vivo, human; conditions: for Dose-limiting toxicities (DLTs): cycle 1, with carboplatin-paclitaxel
[6] = system: patients with solid tumors; conditions: SNX-5422 alone; cited from earlier work
[7] = SNX-5422 doses of 50, 75, and 100 mg/m^2

half-life ([2]; human, plasma, po): ~8 h
Compound: CC1(C)CC(=O)c2c(C(F)(F)F)nn(-c3ccc(C(N)=O)c(N[C@H]4CC[C@H](O)CC4)c3)c2C1 [SNX-2112]
Activity with carboplatin and paclitaxel [1]: combinatorial activity
AUC0–24 of SNX-2112, dose proportionality [2, 7]: increased in a slightly greater than proportional manner
Maximum plasma concentration of SNX-2112, dose proportionality [2, 7]: increased in approximate proportion to dose

Compound: CC1(C)CC(=O)c2c(C(F)(F)F)nn(-c3ccc(C(N)=O)c(N[C@H]4CC[C@H](OC(=O)CN)CC4)c3)c2C1 [SNX-5422]
Duration of disease control on single-agent maintenance ([3]; HER2, RET, KRAS, and EGFR-mutations): 4–12 months
Time on SNX-5422 maintenance ([3]; another patient with KRAS-mutant NSCLC, unconfirmed response): ~ 5 months
Time on SNX-5422 maintenance ([3]; one patient with HER2-mutant NSCLC, partial response): 12 months and ~ 12 months
Time on SNX-5422 maintenance prior to progression ([3]; one patient with KRAS-mutant NSCLC, partial response): ~ 7 months
Concentrations of SNX-5422 in samples collected after dosing ([2]; oral SNX-5422): no measurable concentrations
Any treatment-related AE, All Grade [4]: 7 (54) n (%)
Any treatment-related AE, Grade 1 [4]: 1 (8) n (%)
Any treatment-related AE, Grade 2 [4]: 4 (31) n (%)
Any treatment-related AE, Grade 3 [4]: 2 (15) n (%)
Any treatment-related AE, Grade 4 [4]: 0 n (%)
Decreased appetite, All Grade [4]: 2 (15) n (%)
Decreased appetite, Grade 1 [4]: 1 (8) n (%)
Decreased appetite, Grade 2 [4]: 1 (8) n (%)
Decreased appetite, Grade 3 [4]: 0 n (%)
Decreased appetite, Grade 4 [4]: 0 n (%)
Diarrhea, All Grade [4]: 3 (23) n (%)
Diarrhea, Grade 1 [4]: 0 n (%)
Diarrhea, Grade 2 [4]: 1 (8) n (%)
Diarrhea, Grade 3 [4]: 2 (15) n (%)
Diarrhea, Grade 4 [4]: 0 n (%)
Fatigue, All Grade [4]: 2 (15) n (%)
Fatigue, Grade 1 [4]: 1 (8) n (%)
Fatigue, Grade 2 [4]: 1 (8) n (%)
Fatigue, Grade 3 [4]: 0 n (%)
Fatigue, Grade 4 [4]: 0 n (%)
Nausea, All Grade [4]: 2 (15) n (%)
Nausea, Grade 1 [4]: 2 (15) n (%)
Nausea, Grade 2 [4]: 0 n (%)
Nausea, Grade 3 [4]: 0 n (%)
Nausea, Grade 4 [4]: 0 n (%)
Treatment-related decreased appetite [4]: 15%
Treatment-related diarrhea [4]: 23%
Treatment-related fatigue [4]: 15%
Treatment-related grade 3/4 diarrhea [4]: 15%
Treatment-related grade 3/4 nausea [4]: 0%
Treatment-related nausea [4]: 15%
Dose-limiting toxicities (DLTs) ([5]; 50 mg/m^2 cohort (n=3)): no DLTs
Dose-limiting toxicities (DLTs) ([5]; 75 mg/m^2 cohort (n=4)): no DLTs
Maximum tolerated dose (MTD) of SNX-5422 ([5]; qod, in combination with carboplatin (AUC 5) and paclitaxel (175 mg/m^2)): 100 mg/m^2
Single-agent maximum tolerated dose (MTD) [6]: 100 mg/m^2
